In brackets after ≈: the same amount, converted by molar mass.
Test system: Klebsiella pneumoniae
Test: Antibacterial activity against Klebsiella pneumoniae assessed as bacterial growth inhibition incubated for 24 hrs by broth microdilution method
Type: functional
Settings: not given

In order of rising MIC:
1. CCn1cc(C(=O)O)c(=O)c2cc(F)c(N3CCNCC3)cc21 [NORFLOXACIN]  6 µM (≈ 1.92 µg/mL)
2. CCCc1nccn1-c1ccnc(N(CCO)CCO)n1  379 µM (≈ 110 µg/mL)
3. Brc1ccc2c3ccccc3n(-c3nccc(-n4cncn4)n3)c2c1  656 µM (≈ 257 µg/mL)
4. O=S(=O)(c1ccc(F)cc1)N1CCN(c2nccc(-n3cncn3)n2)CC1  658 µM (≈ 256 µg/mL)
5. Cc1cn(-c2nccc(N(CCO)CCO)n2)cn1  973 µM (≈ 256 µg/mL)
6. Nc1ccc(S(=O)(=O)Nc2ncccn2)cc1 [SULFADIAZINE]  1020 µM (≈ 256 µg/mL)
7. OCCN(CCO)c1ccnc(-n2ccnc2)n1  1030 µM (≈ 256 µg/mL)
8. CCN(CCO)c1nccc(-n2cncn2)n1  1090 µM (≈ 256 µg/mL)
9. CCc1nccn1-c1nccc(N(CCO)CCO)n1  1850 µM (≈ 512 µg/mL)

Test system: Staphylococcus aureus
Test: Antibacterial activity against methicillin-resistant Staphylococcus aureus assessed as bacterial growth inhibition incubated for 24 hrs by broth microdilution method
Type: functional
Settings: not given

In order of falling MIC:
1. CCN(CCO)c1nccc(-n2cncn2)n1  1090 µM (≈ 256 µg/mL)
2. OCCN(CCO)c1ccnc(-n2ccnc2)n1  1030 µM (≈ 256 µg/mL)
3. Cc1cn(-c2nccc(N(CCO)CCO)n2)cn1  973 µM (≈ 256 µg/mL)
4. CCc1nccn1-c1nccc(N(CCO)CCO)n1  924 µM (≈ 256 µg/mL)
5. CCCc1nccn1-c1ccnc(N(CCO)CCO)n1  879 µM (≈ 256 µg/mL)
6. O=S(=O)(c1ccc(F)cc1)N1CCN(c2nccc(-n3cncn3)n2)CC1  658 µM (≈ 256 µg/mL)
7. Brc1ccc2c3ccccc3n(-c3nccc(-n4cncn4)n3)c2c1  656 µM (≈ 257 µg/mL)
8. Nc1ccc(S(=O)(=O)Nc2ncccn2)cc1 [SULFADIAZINE]  256 µM (≈ 64.1 µg/mL)
9. CCn1cc(C(=O)O)c(=O)c2cc(F)c(N3CCNCC3)cc21 [NORFLOXACIN]  50 µM (≈ 16 µg/mL)

Test system: Staphylococcus aureus
Test: Antibacterial activity against Staphylococcus aureus ATCC 25923 assessed as bacterial growth inhibition incubated for 24 hrs by broth microdilution method
Type: functional
Settings: not given

In order of rising MIC:
1. CCn1cc(C(=O)O)c(=O)c2cc(F)c(N3CCNCC3)cc21 [NORFLOXACIN]  2 µM (≈ 0.639 µg/mL)
2. Nc1ccc(S(=O)(=O)Nc2ncccn2)cc1 [SULFADIAZINE]  129 µM (≈ 32.3 µg/mL)
3. O=S(=O)(c1ccc(F)cc1)N1CCN(c2nccc(-n3cncn3)n2)CC1  165 µM (≈ 64.3 µg/mL)
4. CCCc1nccn1-c1ccnc(N(CCO)CCO)n1  879 µM (≈ 256 µg/mL)
5. CCc1nccn1-c1nccc(N(CCO)CCO)n1  924 µM (≈ 256 µg/mL)
6. OCCN(CCO)c1ccnc(-n2ccnc2)n1  1030 µM (≈ 256 µg/mL)
7. CCN(CCO)c1nccc(-n2cncn2)n1  1090 µM (≈ 256 µg/mL)
8. Brc1ccc2c3ccccc3n(-c3nccc(-n4cncn4)n3)c2c1  1660 µM (≈ 648 µg/mL)
9. Cc1cn(-c2nccc(N(CCO)CCO)n2)cn1  1950 µM (≈ 512 µg/mL)

Test system: Acinetobacter baumannii
Test: Induction of drug resistance against Acinetobacter baumannii assessed as fold increase in MIC after 20 passages measured for 20 days by sequential passaging method
Type: functional
Settings: time 20.0 day

For `CCn1cc(C(=O)O)c(=O)c2cc(F)c(N3CCNCC3)cc21` [NORFLOXACIN], the fold change (FC) was 31.

Test system: Pseudomonas aeruginosa
Test: Antibacterial activity against Pseudomonas aeruginosa assessed as bacterial growth inhibition incubated for 24 hrs by broth microdilution method
Type: functional
Settings: not given

In order of rising MIC:
1. CCn1cc(C(=O)O)c(=O)c2cc(F)c(N3CCNCC3)cc21 [NORFLOXACIN]  1 µM (≈ 0.319 µg/mL)
2. Brc1ccc2c3ccccc3n(-c3nccc(-n4cncn4)n3)c2c1  1 µM (≈ 0.391 µg/mL)
3. Nc1ccc(S(=O)(=O)Nc2ncccn2)cc1 [SULFADIAZINE]  31 µM (≈ 7.76 µg/mL)
4. O=S(=O)(c1ccc(F)cc1)N1CCN(c2nccc(-n3cncn3)n2)CC1  329 µM (≈ 128 µg/mL)
5. OCCN(CCO)c1ccnc(-n2ccnc2)n1  514 µM (≈ 128 µg/mL)
6. CCN(CCO)c1nccc(-n2cncn2)n1  547 µM (≈ 128 µg/mL)
7. CCCc1nccn1-c1ccnc(N(CCO)CCO)n1  879 µM (≈ 256 µg/mL)
8. CCc1nccn1-c1nccc(N(CCO)CCO)n1  924 µM (≈ 256 µg/mL)
9. Cc1cn(-c2nccc(N(CCO)CCO)n2)cn1  973 µM (≈ 256 µg/mL)

Test system: Escherichia coli
Test: Antibacterial activity against Escherichia coli assessed as bacterial growth inhibition incubated for 24 hrs by broth microdilution method
Type: functional
Settings: not given

In order of rising MIC:
1. CCn1cc(C(=O)O)c(=O)c2cc(F)c(N3CCNCC3)cc21 [NORFLOXACIN]  25 µM (≈ 7.98 µg/mL)
2. Nc1ccc(S(=O)(=O)Nc2ncccn2)cc1 [SULFADIAZINE]  64 µM (≈ 16 µg/mL)
3. Brc1ccc2c3ccccc3n(-c3nccc(-n4cncn4)n3)c2c1  656 µM (≈ 257 µg/mL)
4. O=S(=O)(c1ccc(F)cc1)N1CCN(c2nccc(-n3cncn3)n2)CC1  658 µM (≈ 256 µg/mL)
5. CCCc1nccn1-c1ccnc(N(CCO)CCO)n1  879 µM (≈ 256 µg/mL)
6. CCc1nccn1-c1nccc(N(CCO)CCO)n1  924 µM (≈ 256 µg/mL)
7. Cc1cn(-c2nccc(N(CCO)CCO)n2)cn1  973 µM (≈ 256 µg/mL)
8. OCCN(CCO)c1ccnc(-n2ccnc2)n1  1030 µM (≈ 256 µg/mL)
9. CCN(CCO)c1nccc(-n2cncn2)n1  1090 µM (≈ 256 µg/mL)

Test system: Pseudomonas aeruginosa
Test: Antibacterial activity against Pseudomonas aeruginosa ATCC 27853 assessed as bacterial growth inhibition incubated for 24 hrs by broth microdilution method
Type: functional
Settings: not given

In order of rising MIC:
1. CCn1cc(C(=O)O)c(=O)c2cc(F)c(N3CCNCC3)cc21 [NORFLOXACIN]  3 µM (≈ 0.958 µg/mL)
2. Nc1ccc(S(=O)(=O)Nc2ncccn2)cc1 [SULFADIAZINE]  64 µM (≈ 16 µg/mL)
3. Brc1ccc2c3ccccc3n(-c3nccc(-n4cncn4)n3)c2c1  656 µM (≈ 257 µg/mL)
4. O=S(=O)(c1ccc(F)cc1)N1CCN(c2nccc(-n3cncn3)n2)CC1  658 µM (≈ 256 µg/mL)
5. CCCc1nccn1-c1ccnc(N(CCO)CCO)n1  879 µM (≈ 256 µg/mL)
6. CCc1nccn1-c1nccc(N(CCO)CCO)n1  924 µM (≈ 256 µg/mL)
7. Cc1cn(-c2nccc(N(CCO)CCO)n2)cn1  973 µM (≈ 256 µg/mL)
8. OCCN(CCO)c1ccnc(-n2ccnc2)n1  1030 µM (≈ 256 µg/mL)
9. CCN(CCO)c1nccc(-n2cncn2)n1  1090 µM (≈ 256 µg/mL)

Test system: Acinetobacter baumannii
Test: Antibacterial activity against Acinetobacter baumannii assessed as bacterial growth inhibition incubated for 24 hrs by broth microdilution method
Type: functional
Settings: not given

In order of falling MIC:
1. CCN(CCO)c1nccc(-n2cncn2)n1  1090 µM (≈ 256 µg/mL)
2. OCCN(CCO)c1ccnc(-n2ccnc2)n1  1030 µM (≈ 256 µg/mL)
3. CCc1nccn1-c1nccc(N(CCO)CCO)n1  924 µM (≈ 256 µg/mL)
4. CCCc1nccn1-c1ccnc(N(CCO)CCO)n1  879 µM (≈ 256 µg/mL)
5. Brc1ccc2c3ccccc3n(-c3nccc(-n4cncn4)n3)c2c1  656 µM (≈ 257 µg/mL)
6. Cc1cn(-c2nccc(N(CCO)CCO)n2)cn1  486 µM (≈ 128 µg/mL)
7. O=S(=O)(c1ccc(F)cc1)N1CCN(c2nccc(-n3cncn3)n2)CC1  165 µM (≈ 64.3 µg/mL)
8. Nc1ccc(S(=O)(=O)Nc2ncccn2)cc1 [SULFADIAZINE]  64 µM (≈ 16 µg/mL)
9. CCn1cc(C(=O)O)c(=O)c2cc(F)c(N3CCNCC3)cc21 [NORFLOXACIN]  6 µM (≈ 1.92 µg/mL)

Test system: Escherichia coli
Test: Antibacterial activity against Escherichia coli ATCC 25922 assessed as bacterial growth inhibition incubated for 24 hrs by broth microdilution method
Type: functional
Settings: not given

In order of rising MIC:
1. CCn1cc(C(=O)O)c(=O)c2cc(F)c(N3CCNCC3)cc21 [NORFLOXACIN]  3 µM (≈ 0.958 µg/mL)
2. Nc1ccc(S(=O)(=O)Nc2ncccn2)cc1 [SULFADIAZINE]  64 µM (≈ 16 µg/mL)
3. CCN(CCO)c1nccc(-n2cncn2)n1  547 µM (≈ 128 µg/mL)
4. Brc1ccc2c3ccccc3n(-c3nccc(-n4cncn4)n3)c2c1  656 µM (≈ 257 µg/mL)
5. O=S(=O)(c1ccc(F)cc1)N1CCN(c2nccc(-n3cncn3)n2)CC1  658 µM (≈ 256 µg/mL)
6. CCCc1nccn1-c1ccnc(N(CCO)CCO)n1  879 µM (≈ 256 µg/mL)
7. CCc1nccn1-c1nccc(N(CCO)CCO)n1  924 µM (≈ 256 µg/mL)
8. Cc1cn(-c2nccc(N(CCO)CCO)n2)cn1  1950 µM (≈ 512 µg/mL)
9. OCCN(CCO)c1ccnc(-n2ccnc2)n1  2060 µM (≈ 512 µg/mL)

Test system: Staphylococcus aureus
Test: Antibacterial activity against Staphylococcus aureus ATCC 29213 assessed as bacterial growth inhibition incubated for 24 hrs by broth microdilution method
Type: functional
Settings: not given

In order of rising MIC:
1. CCn1cc(C(=O)O)c(=O)c2cc(F)c(N3CCNCC3)cc21 [NORFLOXACIN]  6 µM (≈ 1.92 µg/mL)
2. Nc1ccc(S(=O)(=O)Nc2ncccn2)cc1 [SULFADIAZINE]  54 µM (≈ 13.5 µg/mL)
3. Brc1ccc2c3ccccc3n(-c3nccc(-n4cncn4)n3)c2c1  656 µM (≈ 257 µg/mL)
4. O=S(=O)(c1ccc(F)cc1)N1CCN(c2nccc(-n3cncn3)n2)CC1  658 µM (≈ 256 µg/mL)
5. CCCc1nccn1-c1ccnc(N(CCO)CCO)n1  879 µM (≈ 256 µg/mL)
6. CCc1nccn1-c1nccc(N(CCO)CCO)n1  924 µM (≈ 256 µg/mL)
7. Cc1cn(-c2nccc(N(CCO)CCO)n2)cn1  973 µM (≈ 256 µg/mL)
8. CCN(CCO)c1nccc(-n2cncn2)n1  1090 µM (≈ 256 µg/mL)
9. OCCN(CCO)c1ccnc(-n2ccnc2)n1  2060 µM (≈ 512 µg/mL)

Test system: Enterococcus faecalis
Test: Antibacterial activity against Enterococcus faecalis assessed as bacterial growth inhibition incubated for 24 hrs by broth microdilution method
Type: functional
Settings: not given

In order of rising MIC:
1. Nc1ccc(S(=O)(=O)Nc2ncccn2)cc1 [SULFADIAZINE]  64 µM (≈ 16 µg/mL)
2. CCn1cc(C(=O)O)c(=O)c2cc(F)c(N3CCNCC3)cc21 [NORFLOXACIN]  100 µM (≈ 31.9 µg/mL)
3. Brc1ccc2c3ccccc3n(-c3nccc(-n4cncn4)n3)c2c1  164 µM (≈ 64.2 µg/mL)
4. O=S(=O)(c1ccc(F)cc1)N1CCN(c2nccc(-n3cncn3)n2)CC1  658 µM (≈ 256 µg/mL)
5. CCCc1nccn1-c1ccnc(N(CCO)CCO)n1  879 µM (≈ 256 µg/mL)
6. CCc1nccn1-c1nccc(N(CCO)CCO)n1  924 µM (≈ 256 µg/mL)
7. OCCN(CCO)c1ccnc(-n2ccnc2)n1  1030 µM (≈ 256 µg/mL)
8. CCN(CCO)c1nccc(-n2cncn2)n1  1090 µM (≈ 256 µg/mL)
9. Cc1cn(-c2nccc(N(CCO)CCO)n2)cn1  1950 µM (≈ 512 µg/mL)

Test system: Staphylococcus aureus
Test: Antibacterial activity against Staphylococcus aureus assessed as bacterial growth inhibition incubated for 24 hrs by broth microdilution method
Type: functional
Settings: not given

In order of rising MIC:
1. CCn1cc(C(=O)O)c(=O)c2cc(F)c(N3CCNCC3)cc21 [NORFLOXACIN]  3 µM (≈ 0.958 µg/mL)
2. Brc1ccc2c3ccccc3n(-c3nccc(-n4cncn4)n3)c2c1  5 µM (≈ 1.96 µg/mL)
3. Nc1ccc(S(=O)(=O)Nc2ncccn2)cc1 [SULFADIAZINE]  256 µM (≈ 64.1 µg/mL)
4. O=S(=O)(c1ccc(F)cc1)N1CCN(c2nccc(-n3cncn3)n2)CC1  658 µM (≈ 256 µg/mL)
5. CCCc1nccn1-c1ccnc(N(CCO)CCO)n1  879 µM (≈ 256 µg/mL)
6. CCc1nccn1-c1nccc(N(CCO)CCO)n1  924 µM (≈ 256 µg/mL)
7. Cc1cn(-c2nccc(N(CCO)CCO)n2)cn1  973 µM (≈ 256 µg/mL)
8. OCCN(CCO)c1ccnc(-n2ccnc2)n1  1030 µM (≈ 256 µg/mL)
9. CCN(CCO)c1nccc(-n2cncn2)n1  1090 µM (≈ 256 µg/mL)

— ChEMBL document CHEMBL5380831, “Azolylpyrimidinediols as Novel Structural Scaffolds of DNA-Groove Binders against Intractable Acinetobacter baumannii” (J Med Chem, 2023)
